According to article PMC9259591, “Irigenin, a novel lead from Iris confusa for management of Helicobacter pylori infection with selective COX-2 and HpIMPDH inhibitory potential” (Scientific Reports, 2022):
Converted amounts (≈) assume the structure as drawn. “And” between values parts separate entries of the source, which are not always exact repeats. Identical values can stand only once. Like-named read-outs stand apart in the source and are kept apart here.

Key:
H. pylori ATCC 700392 = experiment: anti-Helicobacter pylori activity, microwell dilution method with MTT; format: cell-based
Method: The anti-Helicobacter pylori activity of the PF and NPF as well as the isolated compounds was evaluated against H. pylori ATCC 700392 (type strain, obtained from the American Type Culture Collection unit (ATCC), using microwell dilution method and clarithromycin as standard drug[37]. The detailed procedures were described in the supplementary file.
The anti-Helicobacter pylori activity of the PF and NPF as well as the isolated compounds was evaluated against H. pylori ATCC 700392 (a type strain, obtained from the American Type Culture Collection unit (ATCC), using microwell dilution method and clarithromycin as standard drug ^1. The tested samples were prepared in dimethyl sulfoxide and successive ten twofold dilutions (125- 0.24 µg/mL) were carried out in a 96-well plate. Each microplate well included forty μL of Brain Heart Infusion growth medium and 10% fetal bovine serum (FBS), ten μL of inoculum and fifty μL of the tested sample. The plates were incubated for 3 days, in 5% oxygen, 10% carbon dioxide, 85 % nitrogen atmosphere at 37°C. Forty μL of 3- (4, 5-dimethyl-thiazol-2-yl)- 2,5-diphenyl-tetrazolium bromide (MTT) at a final concentration of 0.5 mg/mL freshly prepared in H2O was added to each well and incubated for 30 min. The bacteria were biologically active when change to purple color was observed ^1. While no change in MTT color indicated inhibition. Solvent control (DMSO) and the standard antibiotic (clarithromycin) were used as negative and positive controls, respectively. The H. pylori inhibition % was calculated using the given formula:
% Inhibition = Abs control – Abs sample × 100 /Abs control.

human recombinant COX-2 = molecular target: T1, human recombinant COX-2 (Homo sapiens, UniProt P35354); experiment: COX-2 inhibitory activity, colourimetric COX inhibitor screening assay kit; format: biochemical; details: for SI (COX-1/COX-2): selectivity index calculated as IC50 (COX-1)/(COX-2)
T1 construct: purchased
T1 sequence (P35354 18-604): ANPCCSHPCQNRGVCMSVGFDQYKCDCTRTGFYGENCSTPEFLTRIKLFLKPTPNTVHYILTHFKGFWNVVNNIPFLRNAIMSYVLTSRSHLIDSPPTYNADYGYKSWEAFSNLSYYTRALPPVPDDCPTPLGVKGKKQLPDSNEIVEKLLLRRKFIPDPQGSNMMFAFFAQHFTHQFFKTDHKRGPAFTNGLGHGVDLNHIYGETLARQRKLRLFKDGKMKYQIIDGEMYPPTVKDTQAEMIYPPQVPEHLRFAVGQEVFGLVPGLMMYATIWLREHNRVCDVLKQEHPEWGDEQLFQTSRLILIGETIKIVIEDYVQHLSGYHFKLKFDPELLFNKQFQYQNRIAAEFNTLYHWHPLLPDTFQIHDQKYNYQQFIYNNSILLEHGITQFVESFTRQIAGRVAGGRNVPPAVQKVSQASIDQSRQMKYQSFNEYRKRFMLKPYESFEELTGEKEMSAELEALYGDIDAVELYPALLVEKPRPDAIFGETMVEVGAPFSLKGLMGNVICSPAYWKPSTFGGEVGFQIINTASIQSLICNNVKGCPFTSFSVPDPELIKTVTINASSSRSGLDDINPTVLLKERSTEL
Method: (§1) The inhibitory COX activity was assayed colourimetrically by examining the inhibition of the ovine COX-1 and human recombinant COX-2 enzymes as described by George et al.[38], using a COX inhibitor screening assay kit. The detailed procedures were described in the supplementary file.
(§2) The inhibitory COX activity was assayed colourimetrically by examining the inhibition of the ovine COX-1 and human recombinant COX-2 enzymes as described by George et al. ^2, using a COX inhibitory screening assay kit. This assay determines the COX peroxidase activity by monitoring the appearance of N,N,N',N'-tetramethyl-p-phenylenediamine (TMPD). Assay buffer (150 μL 0.1 M Tris–HCl pH 8.0), 10 μL heme and 10μL enzyme (COX-1 or COX-2) were added in each well. Ten μL of each tested sample concentration was added to each well and incubated for 15 minutes at 37°C. After incubation, 20 μL of TMPD was added to each well. For initiating the reaction, 10 μL 10 mM arachidonic acid was added and the plates were further incubated for another 2 minutes at 37°C. For terminating the reaction, 50 μL 1 N HCl and saturated stannous chloride were added.
(§3) Reaction mixture containing assay buffer and heme acted as the blank and a mixture with either COX-1 or COX-2 assay buffer and heme acted as the 100% initial activity (IA). […] The absorbances of oxidized TMPD (blue colour) were read in ELISA plate reader at 590 nm. The % inhibition was calculated using the following formula:
(§4) COX % Inhibition= [(100%IA−Inhibitor)/ 100% IA x 100]. Where, IA: 100% initial activity.
(§5) The concentration at which the tested sample produces 50% inhibition of COX-1 and/or COX-2 (IC50) was determined. The selectivity index (SI) was calculated also as IC50 (COX-1)/ (COX-2).

[1] = molecular target: T2, H. pylori inosine-5′-monophosphate dehydrogenase (HpIMPDH) (Helicobacter pylori, UniProt P56088); experiment: In vitro HpIMPDH inhibition assay (NADH fluorescence); format: biochemical; design: HpIMPDH inhibitory activity: unit not given here
T2 sequence (P56088 1-481): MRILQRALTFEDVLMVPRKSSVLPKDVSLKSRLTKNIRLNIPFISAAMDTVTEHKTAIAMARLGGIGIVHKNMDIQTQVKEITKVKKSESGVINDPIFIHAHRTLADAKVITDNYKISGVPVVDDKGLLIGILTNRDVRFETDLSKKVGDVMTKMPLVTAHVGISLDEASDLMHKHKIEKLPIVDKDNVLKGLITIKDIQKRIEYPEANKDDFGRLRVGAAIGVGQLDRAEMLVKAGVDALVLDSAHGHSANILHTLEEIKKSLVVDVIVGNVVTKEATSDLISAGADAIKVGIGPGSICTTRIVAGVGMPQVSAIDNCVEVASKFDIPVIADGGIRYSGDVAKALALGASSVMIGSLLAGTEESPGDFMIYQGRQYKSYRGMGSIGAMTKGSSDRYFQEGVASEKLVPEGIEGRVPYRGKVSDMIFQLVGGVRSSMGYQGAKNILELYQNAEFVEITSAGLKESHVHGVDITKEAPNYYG
Method: The assay was carried out according to Galal[40] and was described in detail in the supplementary file.
(§6) Thus, irigenin was selected to test its HpIMPDH inhibitory activity by monitoring NADH production at concentration range of 10–0.078 µM compared to clarithromycin as standard drug. Also, to examine irigenin selectivity toward the bacterial IMPDH, human hIMPDH2 inhibition potential was assayed.
The assay was carried out in a final volume of two hundred μL in black 96-well plate (Tarsons Products Pvt. Ltd., Kolkata, India) with a reaction buffer composed of one hundred mM KCl, fifty mM Tris–HCl (pH 8.6), and one mM dithiothreitol (DTT). One hundred nM H. pylori inosine-5′-monophosphate dehydrogenase (HpIMPDH) in the presence/absence of the tested compound were used. The assay mixture was then incubated at 37 °C for 10 min, and the reaction was initiated by the adding 250 μM of inosine 5ʹ‐monophosphate (IMP) and 300 μM of nicotinamide adenine dinucleotide (NAD^+) substrate buffer. The assay was allowed to proceed for 45 min at 37 °C.
The formed NADH was measured by recording the fluorescence (excitation 340 nm, emission 440 nm) using PerkinElmer EnVision Multilabel Reader (Waltham, MA) at an interval of one min. DMSO and clarithromycin were used as vehicle control and positive control, respectively. The concentration of the tested sample leading to 50% HpIMPDH inhibition (IC50) was estimated.

[2] = molecular target: T3, Human inosine-5′-monophosphate dehydrogenase (hIMPDH2) (Homo sapiens, UniProt P12268); experiment: In vitro hIMPDH2 inhibition assay (NADH absorbance at 340 nm); format: biochemical; design: key to hIMPDH2 inhibitory activity: % hIMPDH2 inhibition; details: for hIMPDH2 inhibitory activity: in % (unit assumed)
T3 construct: purchased NovoCIB SAS (Lyon, France)
Method: Human inosine-5′-monophosphate dehydrogenase (hIMPDH2) was purchased from NovoCIB SAS (Lyon, France). […] The detailed procedures were described in the supplementary file.
as §6
Human inosine-5′-monophosphate dehydrogenase (hIMPDH2) was purchased from NovoCIB SAS (Lyon, France). […] The assay was carried out in 96-well plates (Tarsons, 980040). The reaction buffer consisted of hundred mM KCl, hundred mM Tris–HCl (pH 8.6), and five mM DTT, 4% v/v DMSO with or without the tested compound and 0.15 mU of purified hIMPDH2 enzyme per well (from 1.5 mg/mL stock concentration). The enzyme stock solution final volume was 2 μL per well, which was insignificant to cause final assay buffer composition change. Addition of (substrate buffer) 0.2 mM of IMP and 0.2 mM of NAD^+ initiated the assay, then it was allowed to proceed for 30 min at 37 °C. The formed NADH was measured by reading the absorbance at 340 nm. […] The concentration of the tested sample leading to 50% hIMPDH2 inhibition (IC50) was estimated.

ovine COX-1 = molecular target: T4, ovine COX-1 (Ovis aries, UniProt P05979); experiment: COX-1 inhibitory activity, colourimetric COX inhibitor screening assay kit; format: biochemical; details: ovine COX-1; ND = not detected
T4 construct: purchased
Method: as §1, §2, §3, §4, §5

[3] = concentration required for 100% inhibition; H. pylori ATCC 700392; ND = not detected
[4] = Helicobacter pylori, ATCC700392; read-out: MIC (H. pylori)
[5] = sample conc. 0.078 (range 10–0.078 µM)
[6] = sample conc. 0.156 (range 10–0.078 µM)
[7] = sample conc. 0.313 (range 10–0.078 µM)
[8] = sample conc. 0.625 (range 10–0.078 µM)
[9] = sample conc. 1.25 (range 10–0.078 µM)
[10] = sample conc. 2.5 (range 10–0.078 µM)
[11] = sample conc. 5 (range 10–0.078 µM)
[12] = sample conc. 10 (range 10–0.078 µM)

T4 sequence (P05979 25-600): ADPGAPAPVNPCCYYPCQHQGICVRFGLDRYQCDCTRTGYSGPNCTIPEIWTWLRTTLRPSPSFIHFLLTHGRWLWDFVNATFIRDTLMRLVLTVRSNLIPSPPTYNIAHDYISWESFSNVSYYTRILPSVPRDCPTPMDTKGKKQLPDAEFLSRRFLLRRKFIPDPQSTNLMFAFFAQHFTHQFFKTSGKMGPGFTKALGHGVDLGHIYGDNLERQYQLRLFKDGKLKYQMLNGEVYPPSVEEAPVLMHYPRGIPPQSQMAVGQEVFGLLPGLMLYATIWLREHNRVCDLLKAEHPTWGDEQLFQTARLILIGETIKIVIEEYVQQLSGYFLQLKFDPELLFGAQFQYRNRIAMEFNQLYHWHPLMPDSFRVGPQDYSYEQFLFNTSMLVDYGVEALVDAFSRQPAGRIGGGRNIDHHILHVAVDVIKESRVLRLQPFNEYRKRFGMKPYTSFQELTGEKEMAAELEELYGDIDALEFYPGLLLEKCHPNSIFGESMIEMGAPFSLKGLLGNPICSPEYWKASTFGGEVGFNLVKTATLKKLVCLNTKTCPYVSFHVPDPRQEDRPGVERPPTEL

Which MIC (H. pylori ATCC 700392; Helicobacter pylori, ATCC700392, read-out: MIC (H. pylori)) does the source give for O=c1cc(-c2ccc(O)c(O)c2)oc2c([C@@H]3O[C@H](CO)[C@@H](O)[C@H](O)[C@H]3O)c(O)cc(O)c12 [Orientin (P2), luteolin-8-C-β-glucopyranoside] here?
The MIC was 15.5 µg/mL and 34.6 µM.

What about the “MIC (H. pylori)” value (H. pylori ATCC 700392; [3]) of the same molecule?
Its value is 15.53 µg/mL (≈ 34.6 µM).

And the MIC (H. pylori ATCC 700392; concentration required for 100% inhibition; H. pylori ATCC 700392; read-out: MIC (H. pylori))?
Its MIC is 34.64 µM (≈ 15.5 µg/mL).

What about the “SI (COX-1/COX-2)” value (human recombinant COX-2) of the same molecule?
The value was 1.58.

What does the source list for CC[C@H](/C=C/[C@@H](C)[C@H]1CC[C@H]2[C@@H]3CC=C4C[C@@H](O)CC[C@]4(C)[C@H]3CC[C@]12C)C(C)C [Stigmasterol (N2), stigmasterol]?
MIC (H. pylori) (H. pylori ATCC 700392; [3]): no H. pylori inhibitory potential; SI (COX-1/COX-2) (human recombinant COX-2): 1.33

For CC[C@H]1OC(=O)[C@H](C)[C@@H](O[C@H]2C[C@@](C)(OC)[C@@H](O)[C@H](C)O2)[C@H](C)[C@@H](O[C@@H]2O[C@H](C)C[C@H](N(C)C)[C@H]2O)[C@](C)(OC)C[C@@H](C)C(=O)[C@H](C)[C@@H](O)[C@]1(C)O [Clarithromycin, clarithromycin, reference compound], which MIC (H. pylori ATCC 700392; [4]) is on record?
Its MIC is 1.95 µg/mL and 2.61 µM.

What about the IC50 [1] of the same molecule?
Its IC50 is 0.51 ± 0.58 µM.

And the HpIMPDH inhibitory activity [1, 5]?
The HpIMPDH inhibitory activity was 9.14 ± 1.70.

What about the HpIMPDH inhibitory activity [1, 6] of the same molecule?
The HpIMPDH inhibitory activity was 21.82 ± 2.10.

What about the HpIMPDH inhibitory activity [1, 7] of the same molecule?
The HpIMPDH inhibitory activity was 38.25 ± 1.50.

And the HpIMPDH inhibitory activity [1, 8]?
Its HpIMPDH inhibitory activity is 56.06 ± 0.58.

What about the HpIMPDH inhibitory activity [1, 9] of the same molecule?
The HpIMPDH inhibitory activity was 69.31 ± 2.10.

And the HpIMPDH inhibitory activity [1, 10]?
Its HpIMPDH inhibitory activity is 81.22 ± 1.60.

What about the HpIMPDH inhibitory activity [1, 11] of the same molecule?
The HpIMPDH inhibitory activity was 100 ± 0.00.

What about the HpIMPDH inhibitory activity [1, 12] of the same molecule?
Its HpIMPDH inhibitory activity is 100 ± 0.00.

What about the IC50 [2] of the same molecule?
Its IC50 is 3.1 ± 2.1 µM.

What about the hIMPDH2 inhibitory activity [2, 5] of the same molecule?
The hIMPDH2 inhibitory activity was 0.00.

What about the hIMPDH2 inhibitory activity [2, 6] of the same molecule?
The hIMPDH2 inhibitory activity was 0.00.

What about the hIMPDH2 inhibitory activity [2, 7] of the same molecule?
Its hIMPDH2 inhibitory activity is 9.74 ± 0.67.

What about the hIMPDH2 inhibitory activity [2, 8] of the same molecule?
Its hIMPDH2 inhibitory activity is 19.35 ± 1.50.

What about the hIMPDH2 inhibitory activity [2, 9] of the same molecule?
Its hIMPDH2 inhibitory activity is 27.32 ± 1.70.

What about the hIMPDH2 inhibitory activity [2, 10] of the same molecule?
The hIMPDH2 inhibitory activity was 46.32 ± 2.20.

What about the hIMPDH2 inhibitory activity [2, 11] of the same molecule?
Its hIMPDH2 inhibitory activity is 60.24 ± 1.50.

And the hIMPDH2 inhibitory activity [2, 12]?
Its hIMPDH2 inhibitory activity is 76.32 ± 0.50.

What does the source list for COc1c(O[C@@H]2O[C@H](CO)[C@@H](O)[C@H](O)[C@H]2O)cc2occ(-c3ccc(O)cc3)c(=O)c2c1O [Tectoridin (P1), tectorigenin-7-O-β-D-glucoside]?
MIC (H. pylori ATCC 700392; [4]): > 125 µg/mL and > 270 µM; MIC (H. pylori) (H. pylori ATCC 700392; [3]): > 125 µg/mL; MIC (H. pylori) (H. pylori ATCC 700392; concentration required for 100% inhibition; H. pylori ATCC 700392; ND = not detected; listed as tectoridine (P1)): no activity; IC50 (COX-1) (ovine COX-1): no inhibition; IC50 (COX-2) (human recombinant COX-2; human recombinant COX-2, ND = not detected): no inhibition
